Test results from patent EP0061745A1, “Tetrahydroisoquinoline compounds, processes for preparation thereof and pharmaceutical composition containing them” (Tanabe Seiyaku Co., Ltd., priority 1981, dated 1982).

Assays:
[1] = test system: production of PG 12 in vascular tissues; assay: Effect on production of PG I2 in vascular tissues (platelet lysate or aorta microsome); format: biochemical; details: pig's blood platelet lysate or microsome obtained from pig's aorta
[2] = test system: spontaneously hypertensive rats (SHR); assay: Blood-pressure lowering effect after oral administration to SHR; format: in vivo; details: administered orally, dose of 50 mg/kg
SHR = assay: Hypotensive activity after repeated administration (tolerance); format: in vivo, rats; details: administered to SHR for 15 consecutive days

SMILES: CCCCCCCCCC[C@H](CN(CC)C(=O)N1Cc2ccccc2C[C@H]1C(=O)O)C(=O)O [(3S)-2-[N-((2R)-2-carboxy-n-dodecyl)-N-ethylcarbamoyl]-1,2,3,4-tetrahydroisoquinoline-3-carboxylic acid]
- increase in the formation of PG I2 as compared with a control group [1]: 62%

SMILES: CCOC(=O)[C@H](CCc1ccccc1)CN(CC)C(=O)N1Cc2ccccc2C[C@H]1C(=O)O [(3S)-2-[N-((2R)-2-ethoxycarbonyl-4-phenyl-n-butyl)-N-ethylcarbamoyl]-1,2,3,4-tetrahydroisoquinoline-3-carboxylic acid]
- decrease in the blood pressure [2]: about 35 mmHg
- duration of blood-pressure lowering effect [2]: more than 6 hours

SMILES: CCCCCCCC[C@H](CN(CC)C(=O)N1Cc2ccccc2C[C@H]1C(=O)O)C(=O)OCC [calcium (3S)-2-[N-((2R)-2-ethoxycarbonyl-n-decyl)-N-ethylcarbamoyl] - 1,2,3,4-tetrahydro-isoquinoline-3-carboxylate]
- potency of hypotensive activity during repeated administration (SHR): almost the same potency of its hypotensive activity
- decrease in the blood pressure [2]: about 35 mmHg
- duration of blood-pressure lowering effect [2]: more than 6 hours
